Key:
Type in all cases: tissue-based
[1] = biological target: Histamine H1 receptor (Cavia porcellus) (UniProt P31389); assay: Inhibition of H1 receptor in Cavia porcellus Hartley (guinea pig) ileum assessed as inhibition of histamine-induced spasms incubated 2 min prior histamine-challenge relative to acrivastine
[2] = biological target: Histamine H1 receptor (Cavia porcellus) (UniProt P31389); assay: Inhibition of H1 receptor in Cavia porcellus Hartley (guinea pig) ileum assessed as inhibition of histamine-induced spasms incubated at 10 '-2 M 2 min prior histamine-challenge
[3] = biological target: Histamine H1 receptor (Cavia porcellus) (UniProt P31389); assay: Inhibition of H1 receptor in Cavia porcellus Hartley (guinea pig) ileum assessed as inhibition of histamine-induced spasms incubated at 10 '-3 M 2 min prior histamine-challenge
[4] = biological target: Histamine H1 receptor (Cavia porcellus) (UniProt P31389); assay: Inhibition of H1 receptor in Cavia porcellus Hartley (guinea pig) ileum assessed as inhibition of histamine-induced spasms incubated at 10 '-4 M 2 min prior histamine-challenge
[5] = biological target: Histamine H1 receptor (Cavia porcellus) (UniProt P31389); assay: Inhibition of H1 receptor in Cavia porcellus Hartley (guinea pig) ileum assessed as inhibition of histamine-induced spasms incubated at 10 '-5 M 2 min prior histamine-challenge
[6] = biological target: Histamine H1 receptor (Cavia porcellus) (UniProt P31389); assay: Inhibition of H1 receptor in Cavia porcellus Hartley (guinea pig) ileum assessed as inhibition of histamine-induced spasms incubated at 10 '-6 M 2 min prior histamine-challenge
Histamine H1 receptor = Histamine H1 receptor (Cavia porcellus, UniProt P31389); assay: Inhibition of H1 receptor in Cavia porcellus Hartley (guinea pig) ileum assessed as inhibition of histamine-induced spasms incubated 2 min prior histamine-challenge
Chain of Histamine H1 receptor (P31389 whole entry): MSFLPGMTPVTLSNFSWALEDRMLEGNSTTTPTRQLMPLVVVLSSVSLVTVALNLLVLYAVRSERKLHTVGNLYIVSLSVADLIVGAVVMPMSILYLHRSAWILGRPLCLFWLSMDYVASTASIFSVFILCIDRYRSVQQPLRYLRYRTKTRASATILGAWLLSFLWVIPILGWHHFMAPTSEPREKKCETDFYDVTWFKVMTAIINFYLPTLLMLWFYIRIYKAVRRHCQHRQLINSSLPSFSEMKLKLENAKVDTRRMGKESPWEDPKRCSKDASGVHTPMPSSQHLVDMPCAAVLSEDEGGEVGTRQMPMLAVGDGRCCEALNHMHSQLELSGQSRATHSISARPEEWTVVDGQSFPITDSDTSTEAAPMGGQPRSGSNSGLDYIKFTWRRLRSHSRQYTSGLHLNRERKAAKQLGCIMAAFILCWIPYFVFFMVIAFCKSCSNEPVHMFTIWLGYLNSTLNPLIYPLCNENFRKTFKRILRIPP

Chain of Histamine H1 receptor (Cavia porcellus) (P31389 whole entry): as above

## O=C1c2ccccc2C(=O)N1CC(O)CNC1CCCCC1 (racemic)
[1]
  Emax: 37.5%
[2]
  inhibition: 78.3%
[3]
  inhibition: 66%
[4]
  inhibition: 37.5%
[5]
  inhibition: 33.3%
[6]
  inhibition: 12.9%

## CC(C)CNCC(C)(C)N1C(=O)c2ccccc2C1=O
[1]
  Emax: 18%
[2]
  inhibition: 22%
[3]
  inhibition: 20%
[4]
  inhibition: 18%
[5]
  inhibition: 16%
[6]
  inhibition: 14%

## Cc1ccc(/C(=C\CN2CCCC2)c2cccc(/C=C/C(=O)O)n2)cc1 [ACRIVASTINE]
Histamine H1 receptor
  IC50: 6.12 µM
[1]
  Emax: 100%
[2]
  inhibition: 100%
[3]
  inhibition: 100%
[4]
  inhibition: 100%
[5]
  inhibition: 60%
[6]
  inhibition: 16.6%

## O=C1NC(=O)C(=CN2CCOCC2)C(=O)N1
Histamine H1 receptor
  IC50: 86.8 µM
[1]
  Emax: 100%
[2]
  inhibition: 100%
[3]
  inhibition: 100%
[4]
  inhibition: 100%
[5]
  inhibition: 57.3%
[6]
  inhibition: 12.8%

## CC(C)(CO)NC=C1C(=O)NC(=O)NC1=O
Histamine H1 receptor
  IC50: 6.15 µM
[1]
  Emax: 65%
[2]
  inhibition: 100%
[3]
  inhibition: 85.5%
[4]
  inhibition: 65%
[5]
  inhibition: 40%
[6]
  inhibition: 16.7%

## CC(C)(CO)NCC(C)(C)N1C(=O)c2ccccc2C1=O
[1]
  Emax: 20%
[2]
  inhibition: 100%
[3]
  inhibition: 62.9%
[4]
  inhibition: 20%
[5]
  inhibition: 0%
[6]
  inhibition: 0%

## CCOC(=O)N1CCN(C=C2C(=O)NC(=O)NC2=O)CC1
[1]
  Emax: 25%
[2]
  inhibition: 25%
[3]
  inhibition: 25%
[4]
  inhibition: 25%
[5]
  inhibition: 9%
[6]
  inhibition: 8%

## OCCN(Cc1nc2ccccc2[nH]1)c1nc2ccccc2[nH]1
[1]
  Emax: 11%
[2]
  inhibition: 65.5%
[3]
  inhibition: 60%
[4]
  inhibition: 11%
[5]
  inhibition: 10.5%
[6]
  inhibition: 0%

## CC(CO)(CO)NCCCN1C(=O)c2ccccc2C1=O
Histamine H1 receptor
  IC50: 80.2 µM
[1]
  Emax: 54%
[2]
  inhibition: 100%
[3]
  inhibition: 69.2%
[4]
  inhibition: 54%
[5]
  inhibition: 28.4%
[6]
  inhibition: 5.45%

## CC(CO)(CO)Nc1nc2ccccc2[nH]1
Histamine H1 receptor
  IC50: 28.9 µM
[1]
  Emax: 55%
[2]
  inhibition: 100%
[3]
  inhibition: 69%
[4]
  inhibition: 55%
[5]
  inhibition: 29.6%
[6]
  inhibition: 7.16%

## CC(C)(CO)N1C(=O)c2ccccc2C1=O
[1]
  Emax: 0%
[2]
  inhibition: 0%
[3]
  inhibition: 0%
[4]
  inhibition: 0%
[5]
  inhibition: 0%
[6]
  inhibition: 0%

## CC(CO)(CO)NCc1nc2ccccc2[nH]1
[1]
  Emax: 14.2%
[2]
  inhibition: 85.7%
[3]
  inhibition: 50%
[4]
  inhibition: 14.2%
[5]
  inhibition: 11.2%
[6]
  inhibition: 0%

## O=C1NC(=O)C(=CNC2CCCCC2)C(=O)N1
Histamine H1 receptor
  IC50: 7 µM
[1]
  Emax: 100%
[2]
  inhibition: 100%
[3]
  inhibition: 100%
[4]
  inhibition: 100%
[5]
  inhibition: 55.3%
[6]
  inhibition: 20%
